Measured values from patent US20240398697A1, “Injectable Formulations” (The University of Liverpool, priority 2021, published 2024).
Read-outs that look alike come from different tables or passages of the source.

Experiments:
[1] = Ex vivo skin deposition, modified Franz diffusion cell; assay type: in vitro ADME
Method: Ex vivo skin deposition experiments were carried out utilising a modified Franz diffusion cell. Full thickness skin was collected and excised within 24 hours of birth. On the day of the experiment, the skin was first pre-equilibrated in PBS at pH 7.4 for 30 minutes until totally thawed and then carefully shaved using a razor. It was then cyanoacrylate-glued to the donor compartment of the Franz diffusion cells to ensure its adhesion to the set up during the microneedle insertion and throughout the experiment. Microneedle arrays were applied to the skin using firm thumb pressure for 30 seconds. A stainless-steel cylinder (diameter 11 mm, mass 11.5 g) was put on the top of each microneedle array to hold them in place throughout the experiment. The receiver compartment was filled with 12 mL of 1% w/v SLS in PBS (pH 7.4). The donor compartment was clamped on top of the receiver compartment and wrapped with Parafilm® M to prevent solvent evaporation. Samples of 200 μL of the receiver compartment were taken at predefined time points of 0.5, 1, 1.5, 2, 3, 4, 6, 10, and 24 hours and was replaced with the fresh release medium. At 24 hours, the Franz cells were disassembled, the skin surface dabbed clean to remove surface drug, and glecaprevir and pibrentasvir were extracted from skins. Cumulative amounts of glecaprevir and pibrentasvir delivered from each formulation to both skin and receiver compartments were also determined. To extract the drug from the skin, skin samples collected at 24 hours were cut into small pieces, where 0.5 ml of water was added to each sample. They were then homogenised for 15 minutes using a Tissue Lyser LT. Subsequently, 1 mL of methanol was added, and samples were homogenised again for another 15 minutes. Then they were transferred to the tubes followed by adding 3.5 mL of methanol. After a 30-min sonication, 100 μL of the samples were diluted to 1 mL by PBS buffer. The samples were vortexed and centrifuged, then analysed by HPLC.

[2] = Terminal half-life of conventional aqueous formulations injected intramuscularly; design: species or system adult male Wistar rats; conditions: male, Wistar, rat, in vivo, im
From the text: The foregoing experiments have shown that solid compositions comprising microparticles of glecaprevir and/or pibrentasvir may be formed through combination with certain first and second excipients. […] The solid compositions have also been reformulated into implantable rods, and microneedle arrays. Any of the solid compositions, aqueous dispersions, implantable rods, and microneedle arrays are expected to be therapeutically useful based on the known therapeutic uses of glecaprevir and pibrentasvir and the well-tolerated nature of the first and second excipients used. In addition, the form of the solid composition, aqueous dispersion, implantable rod, and microneedle array are expected to provide enhanced pharmacokinetic properties and therapeutic benefits when compared to conventional glecaprevir and pibrentasvir orally-dosed formulations. […] In particular, the formulations comprising microparticles of glecaprevir and/or pibrentasvir as described herein are expected to greatly improve the terminal half-life of the glecaprevir and/or pibrentasvir in vivo as compared to conventional aqueous formulations in which the glecaprevir and/or pibrentasvir are solubilised through addition of DMSO, when the formulations are delivered as intramuscular and/or subcutaneous injections.

[3] = In vivo plasma concentration after microneedle, intramuscular and intravenous administration (Example 22); design: species or system Female Sprague-Dawley rats; conditions: 5 mg/kg IV in DMSO/PEG 400/cyclodextrin; monitored 48 hour
Method: Animals were separated into three cohorts; each was comprised of 6 rats. Every 3 rats were housed in a different cage. Each rat of the first cohort (rats 1-6) received four microneedle arrays with a total dose of 16 mg (8 mg of glecaprevir and 8 mg of pibrentasvir). The second cohort (rats 7-12) received intramuscular injections of glecaprevir and pibrentasvir. For each rat, 37.5 mg of the glecaprevir30/pibrentasvir30/[…]10 formulation was dispersed in 300 μL of sterile water, then 150 μL of the solution was injected into each thigh of the rat. The dose given to each rat was approximately […]. The final cohort (rats 13-18) received 5 mg/kg of glecaprevir and pibrentasvir given as IV injections. The IV formulations were prepared by dissolving each drug in 5% v/v DMSO, 10% v/v PEG 400 in water diluted with 20% v/v hydroxy-B-cyclodextrin in water. To minimise the interference of hair in application of the microneedle arrays, the dorsal hair of the rats from the first cohort (rats 1-6) was removed prior to the experiment. The bulk hair was shaved using an electric hair clipper and the remaining hair residuals were removed using depilatory hair removal cream. Rats were then left for a 24 hour period to allow the skin to recover and to ensure complete restoration of skin barrier function before affixing the microneedle arrays. […]

delivered to the receiver compartment of the Franz diffusion cells ([1]; 24 h, pH 7.4) [µg]	deposited into the skin ([1]; 24 h, pH 7.4) [µg]	total amount delivered as share of drug initially present in the microneedle arrays ([1]; 24 h, pH 7.4) [%]	total amount delivered to the skin and receiver compartment ([1]; 24 h, pH 7.4) [µg]	half-life [2] [h]	deposited into the skin ([1]; from microneedle arrays, over 24 h) [µg]	delivered to the receiver compartment of the Franz diffusion cells ([1]; from microneedle arrays, over 24 h, receiver 1% w/v SLS in PBS pH 7.4) [µg]	total amount delivered to the skin and receiver compartment ([1]; from microneedle arrays, over 24 hours) [µg]	total amount delivered as share of drug initially present in the microneedle arrays ([1]; over 24 hours) [%]	half-life ([2]; conventional aqueous formulation (solubilised through addition of DMSO), injected intramuscularly, read-out: terminal half-life (converted)) [h]	SMILES	plasma concentration after intravenous (IV) administration [3]
115.2 ± 29	304 ± 45.7	23.4±3.2	419.2 ± 56.6	10	–	–	–	–	–	COC(=O)N[C@H](C(=O)N1CCC[C@H]1c1nc2cc([C@H]3CC[C@H](c4cc5nc([C@@H]6CCCN6C(=O)[C@@H](NC(=O)OC)[C@@H](C)OC)[nH]c5cc4F)N3c3cc(F)c(N4CCC(c5ccc(F)cc5)CC4)c(F)c3)c(F)cc2[nH]1)[C@@H](C)OC [pibrentasvir, Pibrentasvir]	–
–	–	–	–	–	285.2 ± 51.3	203.9 ± 41.3	489.1 ± 68.6	25.1±3.5	4	CC(C)(C)[C@@H]1NC(=O)O[C@@H]2CCC[C@H]2OC/C=C/C(F)(F)c2nc3ccccc3nc2O[C@@H]2C[C@@H](C(=O)N[C@]3(C(=O)NS(=O)(=O)C4(C)CC4)C[C@H]3C(F)F)N(C2)C1=O [glecaprevir, Glecaprevir]	subsided quickly within the 48 hour period
